Read-outs that look alike come from different tables or passages of the source.
Columns and labels:
Assay type in all cases: biochemical
CDK7/CycH/Mat1 = CDK7/CycH/Mat1 (Homo sapiens, UniProt P50613); test: CDK7 Enzymatic Activity Assay (Lance Kinase Activity Assay, FRET)
Summary of the method: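 Ulight-MBP peptide phosphorylation by CDK7/CycH/Mat1 in HEPES 50 mM pH 7.5, MgCl2, EGTA, DTT, Tween-20; 1 h at room temperature, then EDTA stop with Eu-anti-phospho-MBP antibody for 1 h and TR-FRET read. Compounds in 8-point 1:3 DMSO series; IC50 from sigmoidal dose-response fit.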

CDK2/CycA = molecular target: T1, CDK2/CycA (Homo sapiens, UniProt P24941); test: CDK2 Enzymatic Activity Assay (Lance Kinase Activity Assay, FRET); conditions: for IC50: Table 5B, class symbols per IC50 [nM] ranges of b581, read-out: CDK2: Selectivity of CDK7 inhibition over CDK2 inhibition
T1 construct: purchased Proqinase
Procedure: This protocol describes how the Lance Kinase Activity Assay was performed to determine IC50 values of compounds of general formula (I) against CDK/Cyclin complexes. The principle behind this enzymatic assay is based upon the phosphorylation of the Ulight-Peptide Substrat. It is detected by using a specific EU-labeled anti-phospho peptide antibody.
Binding of an inhibitor to the kinase prevents phosphorylation of the Ulight-MBP Substrat, resulting in a loss of FRET.
CDK2 Enzymatic Activity Assay
The compounds of general formula (I) exemplary summarized in Table 1 were diluted from a 10 mM DMSO stock solution 1:10 in a total volume of 15 μl DMSO. This compound predilution was then serial diluted 1:3 over 8 steps in DMSO and briefly spun down. Each compound solution was now diluted 1:20 in Enzymatic Buffer (HEPES: 50 mM, pH: 7.5; MgCl2: 10 mM; EGTA: 1 mM; DTT: 2 mM; Tween-20: 0.01%), mixed thoroughly and spun down.
For positive controls, 2 μl of DMSO working solution were mixed with 6 μl CDK2/CycA/substrate working solution and 2 μl ATP working solution. Positive and negative controls were calculated from at least 8 different wells. The 384 well plates were mixed in a Teleshaker plate mixer (Beckman Coulter, Brea, Calif., USA) at 2000 rpm for 40 sec, and incubated for 1 h at room temperature before addition of 10 μl LANCE Detection Buffer (EDTA: […]; Eu-Anti-P-MBP: 4 nM) per well. Plates were mixed in a Teleshaker plate mixer (Beckman Coulter, Brea, Calif., USA) at 2000 rpm for 40 sec, followed by incubation with Detection Buffer for 1 h, and reading. […] IC50 values were determined from the sigmoidal dose response curves with the software Quattro Workflow (Quattro GmbH, Munich, Germany).

CDK9/Cyclin T1 = CDK9/Cyclin T1 (Homo sapiens, UniProt P50750); test: CDK9 Enzymatic Activity Assay (Lance Kinase Activity Assay, FRET); conditions: for IC50: Table 5B, class symbols per IC50 [nM] ranges of b581, read-out: CDK9: Selectivity of CDK7 inhibition over CDK9 inhibition
CDK9/Cyclin T1, sequence (P50750 whole entry): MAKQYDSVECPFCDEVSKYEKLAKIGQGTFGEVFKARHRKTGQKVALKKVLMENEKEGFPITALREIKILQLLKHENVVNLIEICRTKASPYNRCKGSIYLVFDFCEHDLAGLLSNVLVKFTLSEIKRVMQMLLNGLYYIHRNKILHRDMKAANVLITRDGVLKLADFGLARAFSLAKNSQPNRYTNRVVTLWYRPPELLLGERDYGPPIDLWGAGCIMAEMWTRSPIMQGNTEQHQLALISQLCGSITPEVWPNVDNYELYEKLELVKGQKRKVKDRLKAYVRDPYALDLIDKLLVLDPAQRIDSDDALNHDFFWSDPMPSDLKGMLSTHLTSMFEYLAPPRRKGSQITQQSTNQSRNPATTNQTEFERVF
CDK9/Cyclin T1, sequence (O60563 whole entry partner): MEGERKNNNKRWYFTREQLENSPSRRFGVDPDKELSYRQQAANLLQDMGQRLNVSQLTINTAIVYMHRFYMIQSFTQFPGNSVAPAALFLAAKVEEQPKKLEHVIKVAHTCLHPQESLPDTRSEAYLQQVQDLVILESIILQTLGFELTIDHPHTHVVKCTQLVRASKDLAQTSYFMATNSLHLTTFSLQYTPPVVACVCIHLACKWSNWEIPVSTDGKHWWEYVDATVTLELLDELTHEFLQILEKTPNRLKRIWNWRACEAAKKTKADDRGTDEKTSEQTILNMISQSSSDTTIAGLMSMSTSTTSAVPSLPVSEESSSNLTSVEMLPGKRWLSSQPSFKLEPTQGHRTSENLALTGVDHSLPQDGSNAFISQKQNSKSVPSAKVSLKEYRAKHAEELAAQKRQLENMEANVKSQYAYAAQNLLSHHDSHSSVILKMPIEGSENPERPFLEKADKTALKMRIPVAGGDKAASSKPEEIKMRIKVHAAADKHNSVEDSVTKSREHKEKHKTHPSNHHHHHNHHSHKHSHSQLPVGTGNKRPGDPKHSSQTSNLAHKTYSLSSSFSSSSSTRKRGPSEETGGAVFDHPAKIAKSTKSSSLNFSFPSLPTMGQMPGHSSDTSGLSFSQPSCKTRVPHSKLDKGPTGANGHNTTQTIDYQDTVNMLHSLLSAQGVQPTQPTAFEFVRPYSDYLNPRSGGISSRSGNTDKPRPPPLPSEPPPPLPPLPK
Summary of the method: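 CDK9/cyclin T1 phosphorylation of a ULight-MBP peptide was run for 1 h at room temperature in pH 7.5 HEPES buffer with MgCl2, EGTA, DTT and Tween-20. It was followed by 1 h with Eu-anti-phospho-MBP antibody (4 nM) in EDTA detection buffer. TR-FRET loss gave IC50 from 8-point, 1:3 sigmoidal dose-response curves.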

[1] = CDK7/CycH/Mat1, 25 μM ATP final, class ranges, read-out: CDK7: IC50 [nM] for CDK7 inhibition

CDK7/CycH/Mat1, sequence (P50613 whole entry): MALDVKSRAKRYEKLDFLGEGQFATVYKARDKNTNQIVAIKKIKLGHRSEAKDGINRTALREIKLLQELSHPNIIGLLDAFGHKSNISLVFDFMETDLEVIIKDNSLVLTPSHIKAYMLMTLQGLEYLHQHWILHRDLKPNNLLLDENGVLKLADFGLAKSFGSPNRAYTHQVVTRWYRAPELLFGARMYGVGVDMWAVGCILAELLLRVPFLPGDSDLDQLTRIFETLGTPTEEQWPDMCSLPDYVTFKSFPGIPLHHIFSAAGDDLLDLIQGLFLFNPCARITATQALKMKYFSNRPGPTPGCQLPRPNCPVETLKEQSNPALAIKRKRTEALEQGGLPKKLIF

| SMILES | IC50 (CDK7/CycH/Mat1; [1]) [nM] | IC50 (CDK2/CycA) [nM] | IC50 (CDK9/Cyclin T1) [nM] | IC50 (CDK7/CycH/Mat1; Table 6, read-out: IC50 CDK7) [nM] | Selectivity CDK7 over CDK2 (CDK2/CycA; Table 6) [fold] | Selectivity CDK7 over CDK9 (CDK9/Cyclin T1; Table 6) [fold] |
| --- | --- | --- | --- | --- | --- | --- |
| CC(C)c1cnn2c(NCc3ccc(F)cc3-n3cccn3)nc(O[C@@H]3CCCNC3)nc12 [(VII-43), (R)-N-(4-fluoro-2-(1H-pyrazol-1-yl)benzyl)-8-isopropyl-2-(piperidin-3-yloxy)pyrazolo[1,5-a][1,3,5]triazin-4-amine] | < 5 | < 50 | 50 to 500 |  |  |  |
| CC(C)c1cnn2c(NCc3c(F)cccc3-n3cccn3)nc(O[C@@H]3CCCNC3)nc12 [(VII-44), (R)-N-(2-fluoro-6-(1H-pyrazol-1-yl)benzyl)-8-isopropyl-2-(piperidin-3-yloxy)pyrazolo[1,5-a][1,3,5]triazin-4-amine] | < 5 | 50 to 500 | > 2500 |  |  |  |
| CC(C)c1cnn2c(NCc3ccccc3-n3cc(Cl)cn3)nc(O[C@@H]3CCCNC3)nc12 [(VII-52), (R)-N-(2-(4-chloro-1H-pyrazol-1-yl)benzyl)-8-isopropyl-2-(piperidin-3-yloxy)pyrazolo[1,5-a][1,3,5]triazin-4-amine] | < 5 | 50 to 500 | 50 to 500 |  |  |  |
| CC(C)c1cnn2c(NCc3ccccc3CN3CCCC3=O)nc(O[C@@H]3CCCNC3)nc12 [(VII-092), (R)-1-(2-(((8-isopropyl-2-(piperidin-3-yloxy)pyrazolo[1,5-a][1,3,5]triazin-4-yl)amino)methyl)benzyl)pyrrolidin-2-one] | 10 to 25 | > 2500 | > 2500 |  |  |  |
| Cc1ccc(CNc2nc(O[C@@H]3CCCNC3)nc3c(C(C)C)cnn23)c(OC2CCOC2)c1 (stereo partly drawn) [(VII-093), 8-isopropyl-N-(4-methyl-2-((tetrahydrofuran-3-yl)oxy)benzyl)-2-((R)-piperidin-3-yloxy)pyrazolo[1,5-a][1,3,5]triazin-4-amine] | > 25 | > 2500 | > 2500 |  |  |  |
| CC(C)c1cnn2c(NCc3ccccc3OC3CCCC3)nc(O[C@@H]3CCCNC3)nc12 [(VII-095), (R)-N-(2-(cyclopentyloxy)benzyl)-8-isopropyl-2-(piperidin-3-yloxy)pyrazolo[1,5-a][1,3,5]triazin-4-amine] | > 25 | > 2500 | > 2500 |  |  |  |
| CC(C)c1cnn2c(NCc3ccccc3C(N)=O)nc(O[C@@H]3CCCNC3)nc12 [(VII-096), (R)-2-(((8-isopropyl-2-(piperidin-3-yloxy)pyrazolo[1,5-a][1,3,5]triazin-4-yl)amino)methyl)benzamide] | < 5 | 50 to 500 | 500 to 2500 |  |  |  |
| CC(C)c1cnn2c(NCc3ccccc3OC3CCC3)nc(O[C@@H]3CCCNC3)nc12 [(VII-097), (R)-N-(2-cyclobutoxybenzyl)-8-isopropyl-2-(piperidin-3-yloxy)pyrazolo[1,5-a][1,3,5]triazin-4-amine] | > 25 | > 2500 | > 2500 |  |  |  |
| CC(C)c1cnn2c(NCc3ccccc3Oc3ccccn3)nc(O[C@@H]3CCCNC3)nc12 [(VII-098), (R)-8-isopropyl-2-(piperidin-3-yloxy)-N-(2-(pyridin-2-yloxy)benzyl)pyrazolo[1,5-a][1,3,5]triazin-4-amine] | 10 to 25 | 500 to 2500 | > 2500 |  |  |  |
| CC(C)c1cnn2c(NCc3ccccc3S(=O)(=O)N3CCOCC3)nc(O[C@@H]3CCCNC3)nc12 [(VII-099), (R)-8-isopropyl-N-(2-(morpholinosulfonyl)benzyl)-2-(piperidin-3-yloxy)pyrazolo[1,5-a][1,3,5]triazin-4-amine] | < 5 | 500 to 2500 | > 2500 |  |  |  |
| CC(C)c1cnn2c(NCc3cccc(Cl)c3Cl)nc(O[C@@H]3CCCNC3)nc12 [(VII-103), (R)-N-(2,3-dichlorobenzyl)-8-isopropyl-2-(piperidin-3-yloxy)pyrazolo[1,5-a][1,3,5]triazin-4-amine] | 10 to 25 | 50 to 500 | 50 to 500 |  |  |  |
| CNS(=O)(=O)c1ccccc1CNc1nc(O[C@@H]2CCCNC2)nc2c(C(C)C)cnn12 [(VII-104), (R)-2-(((8-isopropyl-2-(piperidin-3-yloxy)pyrazolo[1,5-a][1,3,5]triazin-4-yl)amino)methyl)-N-methylbenzenesulfonamide] | < 5 | 50 to 500 | > 2500 |  |  |  |

More lines, now with the values ahead:

| IC50 (CDK7/CycH/Mat1; [1]) [nM] | IC50 (CDK2/CycA) [nM] | IC50 (CDK9/Cyclin T1) [nM] | IC50 (CDK7/CycH/Mat1; Table 6, read-out: IC50 CDK7) [nM] | Selectivity CDK7 over CDK2 (CDK2/CycA; Table 6) [fold] | Selectivity CDK7 over CDK9 (CDK9/Cyclin T1; Table 6) [fold] | SMILES |
| --- | --- | --- | --- | --- | --- | --- |
| 5 to 10 | 500 to 2500 | 50 to 500 |  |  |  | CC(C)c1cnn2c(NCc3ccccc3F)nc(OC3CCN(C)CC3)nc12 [(VII-56), N-(2-fluorobenzyl)-8-isopropyl-2-((1-methylpiperidin-4-yl)oxy)pyrazolo[1,5-a][1,3,5]triazin-4-amine] |
| 10 to 25 | < 50 | > 2500 |  |  |  | CC(C)c1cnn2c(NCc3ccccc3C(F)(F)F)nc(OC3CCN(C)CC3)nc12 [(VII-58), 8-isopropyl-2-((1-methylpiperidin-4-yl)oxy)-N-(2-(trifluoromethyl)benzyl)pyrazolo[1,5-a][1,3,5]triazin-4-amine] |
| < 5 |  | > 2500 | < 5 | 3926 | 9140 | CC(C)c1cnn2c(NCc3ccccc3-n3ccnc3)nc(OC3CCN(C)CC3)nc12 [(VII-59), N-(2-(1H-imidazol-1-yl)benzyl)-8-isopropyl-2-((1-methylpiperidin-4-yl)oxy)pyrazolo[1,5-a][1,3,5]triazin-4-amine] |
| 5 to 10 | 500 to 2500 | 50 to 500 |  |  |  | CC(C)c1cnn2c(NCc3cccc4ccccc34)nc(OC3CCN(C)CC3)nc12 [(VII-61), 8-isopropyl-2-((1-methylpiperidin-4-yl)oxy)-N-(naphthalen-1-ylmethyl)pyrazolo[1,5-a][1,3,5]triazin-4-amine] |
| < 5 | 50 to 500 | > 2500 |  |  |  | CC(C)c1cnn2c(NCc3ccccc3-c3cccs3)nc(OC3CCN(C)CC3)nc12 [(VII-65), 8-isopropyl-2-((1-methylpiperidin-4-yl)oxy)-N-(2-(thiophen-2-yl)benzyl)pyrazolo[1,5-a][1,3,5]triazin-4-amine] |
| < 5 | 50 to 500 | 50 to 500 |  |  |  | CC(C)c1cnn2c(NCc3ccccc3Cl)nc(OC3CCN(C)CC3)nc12 [(VII-68), N-(2-chlorobenzyl)-8-isopropyl-2-((1-methylpiperidin-4-yl)oxy)pyrazolo[1,5-a][1,3,5]triazin-4-amine] |
| < 5 | 50 to 500 | 50 to 500 |  |  |  | COc1ccccc1CNc1nc(OC2CCN(C)CC2)nc2c(C(C)C)cnn12 [(VII-71), 8-isopropyl-N-(2-methoxybenzyl)-2-((1-methylpiperidin-4-yl)oxy)pyrazolo[1,5-a][1,3,5]triazin-4-amine] |
| < 5 | 50 to 500 | 50 to 500 |  |  |  | CC(C)c1cnn2c(NCc3ccccc3OC(F)F)nc(OC3CCN(C)CC3)nc12 [(VII-72), N-(2-(difluoromethoxy)benzyl)-8-isopropyl-2-((1-methylpiperidin-4-yl)oxy)pyrazolo[1,5-a][1,3,5]triazin-4-amine] |
| < 5 | 500 to 2500 | > 2500 |  |  |  | CC(C)c1cnn2c(NCc3ccccc3-n3cccn3)nc(OC3CCN(C)CC3)nc12 [(VII-73), N-(2-(1H-pyrazol-1-yl)benzyl)-8-isopropyl-2-((1-methylpiperidin-4-yl)oxy)pyrazolo[1,5-a][1,3,5]triazin-4-amine] |
| < 5 | 50 to 500 | > 2500 |  |  |  | CC(C)c1cnn2c(NCc3ccccc3-n3cncn3)nc(OC3CCN(C)CC3)nc12 [(VII-74), N-(2-(1H-1,2,4-triazol-1-yl)benzyl)-8-isopropyl-2-((1-methylpiperidin-4-yl)oxy)pyrazolo[1,5-a][1,3,5]triazin-4-amine] |
| < 5 | 50 to 500 | 50 to 500 |  |  |  | CC(C)c1cnn2c(NCc3ccccc3Br)nc(O[C@@H]3CCCNC3)nc12 [(VII-100), (R)-N-(2-bromobenzyl)-8-isopropyl-2-(piperidin-3-yloxy)pyrazolo[1,5-a][1,3,5]triazin-4-amine] |

— patent publication US9567345B2, “Pharmaceutically active pyrazolo-triazine derivatives” (LEAD DISCOVERY CENTER GMBH, priority 2012, dated 2017)
